Values quoted from earlier work, collected in patent US8394287B2, “Non-aqueous heat transfer fluid and use thereof” (priority 2001, dated 2013).

System: human
Conditions: Federal Register Vol. 63, No. 27, Feb. 10, 1998

For `OCCO` [EG, ethylene glycol], the “lethal dose for a human” value is given as “approximately 1,570 mg/kg body mass”.
